Reference: patent publication US9056835B2, “LPA2 receptor-specific benzoic acid derivatives” (University of Tennessee Research Foundation, priority 2012, dated 2015)

Tests used:
[1] = system: vector- and LPA2-transduced MEF cells; experiment: Cell proliferation assay; assay type: cell-based, mouse; conditions: LPA 1 μM, OTP 1 μM, GRI977143 10 μM; for cell growth: LPA2-transduced MEF; for cell proliferation: vector-transduced MEF
Procedure: Mouse embryonic fibroblast (MEF) cells were isolated from E13.5 LPA1&2 double knockout (DKO) embryos. MEFs were transduced with empty vector or LPA2-containing lentiviruses and selected with 1.5 μg/ml puromycin. Cells were maintained in Dulbecco's modified Eagle medium (DMEM) supplemented with 10% (V/V) fetal bovine serum (FBS), 2 mM L-glutamine, 100 U/mL penicillin, and 100 μg/mL streptomycin. Serum-free medium contained 0.1% (W/V) BSA in DMEM. The rat intestinal epithelial cell line 6 (IEC-6) was obtained from the American Type Culture Collection (Rockville, Md.) at passage 13; passages 16-21 were used in all experiments. IEC-6 cells were maintained in a humidified 37° C. incubator in an atmosphere of 90% air and 10% CO2. Growth medium consisted of DMEM supplemented with 5% heat inactivated FBS, 10 μg/mL insulin, and 50 μg/mL gentamycin. The composition of the serum-starvation medium was the same as that of the full growth medium except that it contained no FBS. The McArdle rat hepatoma cell line (RH7777) stably expressing LPA2 receptors was a gift from Dr. Fumikazu Okajima (Gunma University, Maebashi, Japan). RH7777 cells stably expressing LPA1 or LPA3 receptors were generated in-house and had been characterized earlier. Wild type and LPA receptor (LPAR) stably transfected RH7777 cells were grown in DMEM supplemented with 10% FBS and 2 mM L-glutamine in the presence of 250 μg/ml G418. Chinese hamster ovary (CHO) cells stably expressing either vector or LPA4 receptor were a kind gift from Dr. Takao Shimizu (Tokyo University; Tokyo, Japan). Cells were cultured in Ham's F12 medium containing 10% FBS, 2 mM L-glutamine, and 350 μg/ml G418. Rat neuroblastoma cells (B103) were transduced with the lentivirus harboring wild type of FLAG-LPA5 and selected with puromycin to establish the stable cell lines. The stable cells were maintained in DMEM supplemented with 10% FBS and 0.4 μg/ml puromycin. GPR87- and P2Y10-expressing CHO cells and vector-transfected control cells were a gift from Dr. Norihisha Fujita (Ritsumeikan University; Shiga, Japan). The highly invasive MM1 rat hepatoma cells (gift from Dr. Michiko Mukai, Osaka University, Japan) were grown in suspension in DMEM supplemented with 10% (V/V) FBS, 2 mM L-glutamine, 100 U/mL penicillin, and 100 μg/mL streptomycin. Human umbilical vein endothelial cells (HUVEC) were purchased from VEC Technologies Inc. (Rensselaer, N.Y., USA) and cultured in MCDB-131 complete medium supplemented with 10% (V/V) FBS, 90 μg/mL heparin, 10 ng/mL EGF, 1 μg/mL hydrocortisone, 0.2 mg/mL EndoGrowth (VEC Technologies Inc.) supplement, 100 U/mL penicillin G, 100 μg/mL streptomycin, and 25 μg/mL amphotericin B.
For determination of the effect of the LPA receptor ligands on cell growth, vector- and LPA2-transduced MEF cells (2×10^4) were plated in each well of a 24-well plate in full growth medium. Cells were counted the next day and the medium was replaced with medium containing 1.5% (V/V) FBS supplemented with or without 1 μM LPA, 1 μM OTP, or 10 μM GRI977143. Media containing LPA, OTP, and GRI977143 were refreshed every 24 h. The growth rate was measured by counting the number of cells in triplicate using the Z1 Coulter Particle Counter (Beckman Coulter; Hileah, Fla.) as a function of time.

[2] = system: vector- and LPA2-transduced MEF cells; experiment: Adriamycin-induced apoptosis, caspase activity assay; assay type: cell-based, mouse; conditions: for decrease in caspase-8 activation / decrease in caspase 9 activation: GRI977143 10 μM; for protection against caspase 3 and 7 activation: GRI977143 above 3 μM; for inhibition of caspase 3/7 activation: 10 μM
Procedure: Experiments were performed on vector- and LPA2-transduced MEF cells. To measure caspase 3, 7, 8, or 9 activity and DNA fragmentation, cells were plated in 48-well plates (2×10^4 cells/well). To detect PARP-1 cleavage and Bax translocation, 1.5×10^6 cells were plated in 10-cm dishes and cultured overnight in full growth medium. The next morning, the growth medium was replaced by serum-starvation medium and cells were pretreated for 1 h with LPA (1-10 μM), OTP (1-10 μM), GRI977143 (1-10 μM), or vehicle. Caspase activity, DNA fragmentation, PARP-1 cleavage, and Bax translocation were measured 5 h after incubation with 1.7 μM Adriamycin or 24 h after serum withdrawal.
Caspase-Glow® 3/7, Caspase-Glow® 8 and Caspase-Glow® 9 reagents were purchased from Promega (Madison, Wis.) and used according to the manufacturer's instructions. Briefly, cells were lysed by adding 50 μl of lysis reagent per well, followed by shaking for 30 min at room temperature. […] lysate were transferred to a 96-well white-wall plate, and luminescence was measured using a BioTek® (Winooski, Vt.) plate reader.

[3] = LPA2-transduced MEF, LPA and OTP 1 μM
[4] = vector-transduced MEF, LPA and OTP 1 μM

| Compound | cell growth [1] | cell proliferation [1] | decrease in caspase-8 activation [2, 3] [%] | decrease in caspase 9 activation ([2]; LPA2-transduced MEF, OTP 1 μM) [%] | protection against caspase 3 and 7 activation ([2]; LPA2-transduced MEF) | inhibition of caspase 3/7 activation ([2]; vector-transduced MEF) | decrease in caspase 8 activation [2, 4] [%] | decrease in caspase 9 activation [2, 4] |
| --- | --- | --- | --- | --- | --- | --- | --- | --- |
| octadecenyl thiophosphate [OTP] | significant from 24 hours onwards | significantly (p<0.001) increased | 33±2 | 38±1 | protected | did not attenuate | 15±5 |  |
| CCCCCCCC/C=C\CCCCCCCC(=O)OC[C@@H](O)COP(=O)(O)O [LPA 18:1, Lysophosphatidic acid (18:1)] | significant from 24 hours onwards | no significant effect | 36±1 |  | protected | 26±1% | 12±2 |  |
| O=C(O)c1ccccc1SCCCN1C(=O)c2cccc3cccc(c23)C1=O [GRI977143] | significant from 24 hours onwards | did not cause a significant increase in vector cell proliferation except at 72 hours | 41±5 | 46±4 | significant protection | did not attenuate |  | did not affect |
